What is called IC50 is the concentration that gives 50% inhibition. As usually defined, the Kd is the concentration at which binding is half-saturated. Low values mean a tighter complex, high ones a looser complex.

Experimental findings from ChEMBL document CHEMBL4334516, “Kinase Chemodiversity from the Arctic: The Breitfussins” (J Med Chem, 2019) are described below.

Molecules are shown by their SMILES.

Data set [1] has as its target Sodium-dependent noradrenaline transporter (Homo sapiens, UniProt P23975). In words: Inhibition of [3H]nisoxetine binding to human recombinant NET incubated for 120 mins by scintillation counting method. Conditions: 2 h; call rule not given here.
Data set [2] is described as follows: Stability in mouse plasma assessed as parent compound remaining level at 5 uM incubated for 1 hr by LC-MS analysis. It is filed as ADME, cell-free. Conditions: read-out: Stability.
Data set [3] relates to A673. The experiment in a line: Cytotoxicity in human A673 cells assessed as reduction in cell viability incubated for 72 hrs by SRB assay. Conditions: A673, 72 h. Background: Sulforhodamine B stains cellular protein and so reports cell mass.
The target in data set [4] is Casein kinase I isoform epsilon (Homo sapiens, UniProt P49674). The experiment in a line: Binding affinity to wild-type human full length CSNK1E (M1 to K416 residues) expressed in bacterial expression system by active-site directed competition binding assay based Kinomescan method.
Data set [5] concerns the target Myosin light chain kinase family member 4 (Homo sapiens) (UniProt Q86YV6). The experiment in a line: Binding affinity to wild-type human partial length MYLK4 (V79 to S380 residues) expressed in bacterial expression system assessed as residual binding level at 10 uM by active-site directed competition binding assay based Kinomescan method relative to control.
Data set [6] is described as follows: Toxicity in zebrafish embryos assessed as induction of scoliosis by measuring unaffected embryos level at 0.1 uM after 72 hrs (reference value: 100%). On the set-up: species or system Danio rerio. Conditions: in vivo.
Data set [7] in a line: Cytotoxicity in human RD-ES cells assessed as reduction in cell viability incubated for 72 hrs by SRB assay.
The target in data set [8] is Mitogen-activated protein kinase 15 (Homo sapiens) (UniProt Q8TD08). The experiment in a line: Inhibition of ERK8 (unknown origin) assessed as residual enzyme activity at 50 uM by [33P]-ATP filter binding kinase assay relative to control.
Data set [9] addresses Aurora kinase B (Homo sapiens, UniProt Q96GD4). In words: Inhibition of Aurora B (unknown origin) assessed as residual enzyme activity at 50 uM by [33P]-ATP filter binding kinase assay relative to control.
The target in data set [10] is Mitogen-activated protein kinase kinase kinase 9 (Homo sapiens, UniProt P80192). In words: Binding affinity to wild-type human partial length MLK1 (V88 to W426 residues) expressed in bacterial expression system assessed as residual binding level at 10 uM by active-site directed competition binding assay based Kinomescan method relative to control.
For data set [11], the target named is BMP-2-inducible protein kinase (Homo sapiens, UniProt Q9NSY1). In words: Binding affinity to wild-type human partial length BIKE (S34 to N329 residues) expressed in bacterial expression system by active-site directed competition binding assay based Kinomescan method.
A short description of data set [12]: Toxicity in zebrafish embryos assessed as induction of necrosis by measuring unaffected embryos level at 1.4 uM after 72 hrs (reference value: 100%). On the set-up: species or system Danio rerio. Conditions: in vivo.
A short description of data set [13]: Stability in human liver microsomes supplemented with UDP-glucuronic acid assessed as parent compound remaining level at 5 uM incubated for 1 hr by LC-MS analysis. It counts as ADME, Microsome. Conditions: read-out: Stability.
Data set [14] addresses T1, Mitogen-activated protein kinase kinase kinase kinase 2 (Homo sapiens) (UniProt Q12851).
T1 sequence (whole entry): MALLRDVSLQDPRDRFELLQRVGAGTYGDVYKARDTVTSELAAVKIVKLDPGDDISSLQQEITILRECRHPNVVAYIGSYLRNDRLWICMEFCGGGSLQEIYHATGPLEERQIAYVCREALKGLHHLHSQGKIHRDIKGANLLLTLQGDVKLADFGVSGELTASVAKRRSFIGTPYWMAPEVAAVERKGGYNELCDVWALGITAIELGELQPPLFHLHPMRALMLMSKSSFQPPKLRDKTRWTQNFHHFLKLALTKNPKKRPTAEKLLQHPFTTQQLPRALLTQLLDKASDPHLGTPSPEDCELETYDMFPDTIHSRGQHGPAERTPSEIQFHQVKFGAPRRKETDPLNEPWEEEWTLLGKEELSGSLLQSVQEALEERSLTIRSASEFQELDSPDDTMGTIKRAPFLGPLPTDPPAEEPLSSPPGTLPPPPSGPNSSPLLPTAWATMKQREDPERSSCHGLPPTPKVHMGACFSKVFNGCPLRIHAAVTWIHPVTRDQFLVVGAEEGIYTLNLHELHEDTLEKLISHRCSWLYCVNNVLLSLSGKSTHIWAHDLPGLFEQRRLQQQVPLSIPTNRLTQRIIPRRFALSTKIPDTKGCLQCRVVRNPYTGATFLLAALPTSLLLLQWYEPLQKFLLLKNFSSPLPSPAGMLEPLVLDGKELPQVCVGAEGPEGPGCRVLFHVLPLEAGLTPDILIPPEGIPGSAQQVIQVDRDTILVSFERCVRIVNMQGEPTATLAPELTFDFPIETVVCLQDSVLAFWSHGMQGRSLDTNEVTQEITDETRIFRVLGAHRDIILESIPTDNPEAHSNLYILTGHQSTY
In words: Binding affinity to wild-type human partial length GCK (M1 to G318 residues) expressed in mammalian expression system assessed as residual binding level at 10 uM by active-site directed competition binding assay based Kinomescan method relative to control.

Data set [15] can be described thus: Stability in mouse liver microsomes supplemented with UDP-glucuronic acid assessed as parent compound remaining level at 5 uM incubated for 1 hr by LC-MS analysis. It is filed as ADME, Microsome. Conditions: read-out: Stability. For orientation: Liver microsomes are vesicles of endoplasmic reticulum, rich in cytochrome P450 enzymes.
For data set [16], the target named is 1-phosphatidylinositol 3-phosphate 5-kinase (Homo sapiens, UniProt Q9Y2I7). The experiment in a line: Binding affinity to wild-type human partial length PIKFYVE (F1512 to C2098 residues) expressed in mammalian expression system by active-site directed competition binding assay based Kinomescan method.
The nature of data set [17]: Toxicity in zebrafish embryos assessed as survival at 0.1 uM after 72 hrs (reference value: 95%). More on the design: species or system Danio rerio. Conditions: in vivo.
The nature of data set [18]: Toxicity in zebrafish embryos assessed as induction of necrosis by measuring unaffected embryos level at 14 uM after 72 hrs (reference value: 100%). More on the design: species or system Danio rerio. Conditions: in vivo.
For data set [19], the target named is Interleukin-1 receptor-associated kinase 3 (Homo sapiens, UniProt Q9Y616). The experiment in a line: Binding affinity to wild-type human partial length IRAK3 (V147 to E596 residues) expressed in bacterial expression system by active-site directed competition binding assay based Kinomescan method.
Data set [20] deals with PBMC. In words: Cytotoxicity in human PBMC assessed as reduction in cell viability incubated for 72 hrs by SRB assay. It counts as cell-based.
Data set [21] addresses T2, Serine/threonine-protein kinase pim-1 (Homo sapiens, UniProt P11309). In words: Binding affinity to wild-type human partial length PIM1 (A15 to K313 residues) expressed in bacterial expression system assessed as residual binding level at 10 uM by active-site directed competition binding assay based Kinomescan method relative to control.
Data set [22] deals with T2, Serine/threonine-protein kinase pim-1. The experiment in a line: Binding affinity to wild-type human partial length PIM1 (A15 to K313 residues) expressed in bacterial expression system by active-site directed competition binding assay based Kinomescan method.
Data set [23] addresses Serine/threonine-protein kinase 17B (Homo sapiens) (UniProt O94768). The experiment in a line: Binding affinity to wild-type human full length DRAK2 (M1 to C372 residues) expressed in bacterial expression system assessed as residual binding level at 10 uM by active-site directed competition binding assay based Kinomescan method relative to control.
The target in data set [24] is Testis-specific serine/threonine-protein kinase 1 (Homo sapiens) (UniProt Q9BXA7). The experiment in a line: Inhibition of TSSK1 (unknown origin) assessed as residual enzyme activity at 50 uM by [33P]-ATP filter binding kinase assay relative to control.

As to `COc1cc2c(-c3cnc(-c4ccc[nH]4)o3)c[nH]c2cc1Br`, the “inhibition (INH)” value in [1] was “Active”. Further, the remaining at 1 h, 5 µM in [2] stood at 84%; in [13] it was 92%; in data set [15], 100%. Besides, the IC50 worked out at 2200 nM in [3] and 2500 nM in data set [7]. Moreover, the Kd in data set [4] was found to be 3300 nM; in data set [11], 1100 nM; in data set [16] it was 1000 nM; in data set [19] it was 1700 nM; in data set [22] it was 1200 nM. Moreover, the Activity amounted to 0.25% in [5]; 95% in data set [6]; 9% in data set [8]; 6% in [9]; 59% in [10]; 0% in data set [12]. The Activity was 72% in data set [14]; 0% in data set [18]; “Non-Toxic” in [20]; 9.5% in data set [21]; 1.2% in data set [23]. In addition, the survival at 72 h, 0.1 µM in data set [17] worked out at 100%.
As for `COc1cc(Br)cc2[nH]cc(-c3oc(-c4ccc[nH]4)nc3I)c12`, in data set [24], the Activity came to 21%.
